Like-named read-outs stand apart in the source and are kept apart here.
Target: T1, NKCC1 (Homo sapiens, UniProt P55011)
T1 construct: expressed in transfected cells; host or cells: HEK293
T1 sequence (P55011 1-1212): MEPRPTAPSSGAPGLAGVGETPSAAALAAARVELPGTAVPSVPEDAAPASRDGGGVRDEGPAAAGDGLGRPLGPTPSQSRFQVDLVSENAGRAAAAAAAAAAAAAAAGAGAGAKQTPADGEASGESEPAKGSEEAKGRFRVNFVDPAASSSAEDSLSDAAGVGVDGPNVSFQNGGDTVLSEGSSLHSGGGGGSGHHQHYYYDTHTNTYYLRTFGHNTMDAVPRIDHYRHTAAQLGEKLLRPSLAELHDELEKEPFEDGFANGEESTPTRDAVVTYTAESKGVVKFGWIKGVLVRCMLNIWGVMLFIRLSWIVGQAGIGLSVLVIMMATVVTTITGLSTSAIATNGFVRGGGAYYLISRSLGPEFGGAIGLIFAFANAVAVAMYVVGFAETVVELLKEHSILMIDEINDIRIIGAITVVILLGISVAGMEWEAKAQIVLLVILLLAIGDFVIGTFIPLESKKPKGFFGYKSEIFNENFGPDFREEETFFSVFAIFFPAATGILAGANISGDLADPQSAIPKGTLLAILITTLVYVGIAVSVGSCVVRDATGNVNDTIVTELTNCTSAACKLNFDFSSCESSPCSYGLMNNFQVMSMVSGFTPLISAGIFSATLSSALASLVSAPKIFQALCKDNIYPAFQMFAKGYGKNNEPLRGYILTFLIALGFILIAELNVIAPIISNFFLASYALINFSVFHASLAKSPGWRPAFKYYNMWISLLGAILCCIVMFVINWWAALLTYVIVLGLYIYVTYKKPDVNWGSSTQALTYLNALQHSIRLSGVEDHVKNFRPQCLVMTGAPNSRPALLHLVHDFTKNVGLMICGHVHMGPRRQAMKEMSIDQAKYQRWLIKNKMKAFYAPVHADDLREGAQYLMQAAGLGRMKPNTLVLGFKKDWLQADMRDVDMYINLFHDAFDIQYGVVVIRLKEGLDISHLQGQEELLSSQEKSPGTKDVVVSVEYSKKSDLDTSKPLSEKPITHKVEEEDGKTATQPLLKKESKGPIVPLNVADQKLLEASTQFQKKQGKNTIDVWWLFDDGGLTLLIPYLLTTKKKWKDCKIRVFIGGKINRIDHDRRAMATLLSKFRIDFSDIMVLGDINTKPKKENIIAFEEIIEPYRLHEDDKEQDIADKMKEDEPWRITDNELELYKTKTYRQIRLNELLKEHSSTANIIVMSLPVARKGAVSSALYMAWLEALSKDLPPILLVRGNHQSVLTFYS
Experiment: Chloride kinetic assay (Cl-sensitive YFP) in NKCC1-transfected HEK293 cells
Type: cell-based
Conditions: for NKCC1 Inhibition % 10 μM HEK Chloride YFP assay / inhibition at 10 µM: NKCC1-transfected HEK293; for inhibition at 10 µM: read-out: NKCC1 Inhibition % 10 μM HEK Chloride YFP assay; for effect on decrease in fluorescence upon NaCl application in NKCC1-transfected cells: pre-incubation at 10 μM and 100 μM
Description: FIG. 1: In vitro testing of the NKCC1 inhibitors in the chloride kinetic assay a) Example traces obtained in the chloride kinetic assay on HEK cells transfected with the YFP (mock) or with YFP and NKCC1. The arrow indicates the addition of NaCl (final concentration 74 mM) used to initiate the flux assay. b) Quantification of the effect of bumetanide (10 μM and 100 μM) or furosemide (10 μM and 100 μM) in the chloride kinetic assay on mock or NKCC1-transfected HEK293 cells. Data represents mean±sem from 5 independent experiments. c) Quantification of the effect of bumetanide and furosemide and 2 selected compounds (3.8, 3.17) in the chloride kinetic assay on NKCC1-transfected HEK293 cells. Data represents mean±sem from 5 independent experiments, and they are represented as % of the controls. *P<0.05, **P<0.01, ***P<0.001 Kruskal-Wallis Anova (Dunn's Post hoc Test); ###P<0.001 two-tailed unpaired Student t-test.
To screen in vitro the compounds efficiency in blocking NKCC1, a functional NKCC1 transporter assay was performed by measuring variation of Cl^− ion concentration in the cell through a Cl^− sensitive membrane-tagged yellow fluorescent protein (mbYFPQS, Addgene). mbYFPQS fluorescence is inversely dependent on the concentration of Cl^− inside the cell thus allowing an indirect estimation of the Cl^− transporter activity. In particular, HEK293 cells were transfected with NKCC1 or mock construct (control) together with the Cl^− sensitive YFP. After 2 DIV, the cells were treated with bumetanide and furosemide (as positive controls) or with each of the tested compounds of the invention in a Cl^− free medium. After 30 min, the inhibitory activity of the compounds was tested by monitoring fluorescence upon application of NaCl (FIG. 1a). Transported by NKCC1, Cl binds the YFP, leading to a fluorescence decrease. […] With the Cl kinetic assay, the NKCC1 inhibitory activity of the selected compounds was tested (FIG. 1c).

NKCC1 Inhibition % 10 μM HEK Chloride YFP assay (Table 1) | NKCC1 Inhibition % 10 μM HEK Chloride YFP assay (Table 2) | inhibition at 10 µM (Table 1) | Molecule | further results
Inactive | Inactive | – | CCCCCCCCNc1ccc([N+](=O)[O-])cc1S(=O)(=O)NC [Compound 1.12, N-methyl-5-nitro-2-(octylamino)benzenesulfonamide] | –
Inactive | Inactive | – | CCCCNc1ccc(C(=O)O)cc1S(N)(=O)=O [Compound 2.6, 4-(butylamino)-3-sulfamoyl-benzoic acid] | –
– | – | 1% | CC(C)(C)CCNc1ccc(C(=O)O)cc1S(N)(=O)=O [Compound 2.9, 4-(3,3-dimethylbutylamino)-3-sulfamoyl-benzoic acid] | –
– | – | 16% | CCCCCCCCNc1ccc(C(=O)O)cc1S(=O)(=O)NC [Compound 3.8, 3-(methylsulfamoyl)-4-(octylamino)benzoic acid] | –
– | – | 8% | CCCCCCNc1ccc(C(=O)O)cc1S(=O)(=O)N(C)C [Compound 3.12, 3-(dimethylsulfamoyl)-4-(hexylamino)benzoic acid] | –
Inactive | Inactive | – | CCCCCCCCNc1ccc([N+](=O)[O-])cc1S(=O)(=O)N(C)C [Compound 1.16, N,N-dimethyl-5-nitro-2-(octylamino)benzenesulfonamide] | –
– | – | 17% | CNS(=O)(=O)c1cc([N+](=O)[O-])ccc1NCCC(C)(C)C [Compound 1.13, 2-(3,3-dimethylbutylamino)-N-methyl-5-nitro-benzenesulfonamide] | –
– | – | 37% | CN(C)S(=O)(=O)c1cc(C(=O)O)ccc1NCCCCCCCC(F)(F)F [Compound 3.17, 3-(dimethylsulfamoyl)-4-(8,8,8-trifluorooctylamino) benzoic acid] | NKCC1 inhibition compared with bumetanide and furosemide (100 μM): better than bumetanide and furosemide
– | – | 12% | CCCCCCCCNc1ccc([N+](=O)[O-])cc1S(N)(=O)=O [Compound 1.8, 5-nitro-2-(octylamino)benzenesulfonamide] | –
– | – | 10% | CCCCCCNc1cc(Cl)c(C(=O)O)cc1S(N)(=O)=O [Compound 2.3, 2-chloro-4-(hexylamino)-5-sulfamoyl-benzoic acid] | –
– | – | 36% | CCCCNc1cc(Cl)c(C(=O)O)cc1S(N)(=O)=O [Compound 2.2, 4-(butylamino)-2-chloro-5-sulfamoyl-benzoic acid] | –

Continued, molecule first:

Molecule | NKCC1 Inhibition % 10 μM HEK Chloride YFP assay (Table 1) | NKCC1 Inhibition % 10 μM HEK Chloride YFP assay (Table 2) | inhibition at 10 µM (Table 1) | further results
CN(C)S(=O)(=O)c1cc([N+](=O)[O-])ccc1NCCC(C)(C)C [Compound 1.17, 2-(3,3-dimethylbutylamino)-N,N-dimethyl-5-nitro-benzenesulfonamide] | Inactive | Inactive | – | –
CCCCNc1ccc(C(=O)O)cc1S(=O)(=O)N(C)C [Compound 3.11, 4-(butylamino)-3-(dimethylsulfamoyl)benzoic acid] | – | – | 9% | –
Furosemide [reference compound] | Inactive | Inactive | – | effect on decrease in fluorescence upon NaCl application in NKCC1-transfected cells: effective at 100 μM only
CCCCCCNc1ccc(C(=O)O)cc1S(N)(=O)=O [Compound 2.7, 4-(hexylamino)-3-sulfamoyl-benzoic acid] | – | – | 4% | –
CC(C)(C)CCNc1cc(Cl)c(C(=O)O)cc1S(N)(=O)=O [Compound 2.5, 2-chloro-4-(3,3-dimethylbutylamino)-5-sulfamoyl-benzoic acid] | Inactive | Inactive | – | –
CCCCCCNc1ccc(C(=O)O)cc1S(=O)(=O)NC [Compound 3.7, 4-(hexylamino)-3-(methylsulfamoyl)benzoic acid] | Inactive | Inactive | – | –
CC(C)(C)CCNc1ccc([N+](=O)[O-])cc1S(N)(=O)=O [Compound 1.9, 2-(3,3-dimethylbutylamino)-5-nitro-benzenesulfonamide] | – | – | 5% | –
CCCCNc1cc(C(=O)O)cc(S(N)(=O)=O)c1Oc1ccccc1 [Bumetanide, reference compound] | – | – | 54% | effect on decrease in fluorescence upon NaCl application in NKCC1-transfected cells: significantly reduced
CCCCCCCCNc1ccc(C(=O)O)cc1S(N)(=O)=O [Compound 2.8, 4-(octylamino)-3-sulfamoyl-benzoic acid] | – | – | 5% | –
CCCCCCNc1ccc([N+](=O)[O-])cc1S(=O)(=O)N(C)C [Compound 1.15, 2-(hexylamino)-N,N-dimethyl-5-nitro-benzenesulfonamide] | – | – | 16% | –
CCCCCCNc1ccc([N+](=O)[O-])cc1S(N)(=O)=O [Compound 1.7, 2-(hexylamino)-5-nitro-benzenesulfonamide] | – | – | 25% | –
CCCCCCCCNc1cc(Cl)c(C(=O)O)cc1S(N)(=O)=O [Compound 2.4, 2-chloro-4-(octylamino)-5-sulfamoyl-benzoic acid] | – | – | 14% | –
CCCCNc1ccc([N+](=O)[O-])cc1S(N)(=O)=O [Compound 1.6, 2-(butylamino)-5-nitro-benzenesulfonamide] | – | – | 11% | –
CCCCCCNc1ccc([N+](=O)[O-])cc1S(=O)(=O)NC [Compound 1.11, 2-(hexylamino)-N-methyl-5-nitro-benzenesulfonamide] | – | – | – | inhibition at 10 µM (Table 2): 3.4%
CNS(=O)(=O)c1cc(C(=O)O)ccc1NCCC(C)(C)C [Compound 3.9, 4-(3,3-dimethylbutylamino)-3-(methylsulfamoyl)benzoic acid] | Inactive | Inactive | – | –
CCCCNc1ccc([N+](=O)[O-])cc1S(=O)(=O)NC [Compound 1.10, 2-(butylamino)-N-methyl-5-nitro-benzenesulfonamide] | Inactive | Inactive | – | –
CCCCCCCCNc1ccc(C(=O)O)cc1S(=O)(=O)N(C)C [Compound 3.13, 3-(dimethylsulfamoyl)-4-(octylamino)benzoic acid] | Inactive | Inactive | – | –
CCCCNc1ccc(C(=O)O)cc1S(=O)(=O)NC [Compound 3.6, 4-(butylamino)-3-(methylsulfamoyl)benzoic acid] | – | – | 8% | –
CCCCNc1ccc([N+](=O)[O-])cc1S(=O)(=O)N(C)C [Compound 1.14, 2-(butylamino)-N,N-dimethyl-5-nitro-benzenesulfonamide] | Inactive | Inactive | – | –
CN(C)S(=O)(=O)c1cc(C(=O)O)ccc1NCCC(C)(C)C [Compound 3.14, 4-(3,3-dimethylbutylamino)-3-(dimethylsulfamoyl)benzoic acid] | Inactive | Inactive | – | –
